Results published in PMC10223552 (Pharmaceuticals, 2023).

Experiments:
Format in all cases: cell-based
[1] = tested on: MCF-7 breast cancer cells; test: cells; conditions: Homo sapiens, MCF7; 48 h treatment; read-out: MTT IC50 MCF-7
Procedure: (§1) The cell lines were obtained from American Type Culture Collection (ATCC, Manassas, VA, USA) and were cultured at 37 °C in the presence of 5% CO2 in the atmosphere. […] The cell’s morphology was examined under a Nikon Eclipse Ti inverted phase contrast microscope (Nikon, Tokyo, Japan). The authenticity of tested cell lines was verified by short tandem repeat (STR) genotyping in the Department of Forensic Medicine (Medical University of Lublin, Lublin, Poland).
(§2) Cell viability based on metabolic activity was evaluated with the MTT colorimetric test based on the ability of viable cells to cause the transformation of tetrazolium salts MTT (3-[4,5-dimethylthiazol-2-yl]-2,5)diphenyltetrazolium bromide) into purple formazan, by cellular dehydrogenases. The cells were seeded into 96-well plates at a concentration of 2 × 10^5 cells/mL. […] Doxorubicin was used for comparison as the standard chemotherapeutic agent used in breast cancer treatment. After 48 h of incubation cell cultures were supplemented with 20 µL of 5 mg/mL MTT (Thermofisher, Waltham, MA, USA) stock in PBS (Corning, NY, USA), and the incubation was continued for 4 h at 37 °C. Next, the medium with MTT was removed, and obtained crystals were dissolved in 200 µL of DMSO (dimethyl sulfoxide, Avantor, Gliwice, Poland). The solution absorbency was measured at 570 nm, using a PowerWave™ xs microplate spectrophotometer (BioTek Instruments, Winooski, VT, USA). The experiment was performed three times with three replicates for each concentration of tested compounds.

[2] = tested on: MDA-MB-231 breast cancer cells; test: cells; conditions: Homo sapiens, MDA-MB-231; 48 h treatment; read-out: MTT IC50 MDA-MB-231
Procedure: as §1, §2

[3] = tested on: BJ normal skin fibroblast; test: MTT cytotoxicity test, BJ normal fibroblasts; conditions: Homo sapiens, 48 h treatment
Procedure: The studies were conducted on two breast cancer cell lines—MCF-7 (ER+PR+/HER2-negative) and MDA-MB-231 (ER/PR/HER2-negative) and human normal fibroblast cell line BJ. The cell lines were obtained from American Type Culture Collection (ATCC, Manassas, VA, USA) and were cultured at 37 °C in the presence of 5% CO2 in the atmosphere. The culture media (Eagle’s Minimum Essential Medium for MCF-7 and BJ, Leibovitz’s L-15 Medium for MDA-MB-231, Corning, NY, USA), was supplemented with 10% fetal bovine serum. The cell’s morphology was examined under a Nikon Eclipse Ti inverted phase contrast microscope (Nikon, Tokyo, Japan). The authenticity of tested cell lines was verified by short tandem repeat (STR) genotyping in the Department of Forensic Medicine (Medical University of Lublin, Lublin, Poland).
Cell viability based on metabolic activity was evaluated with the MTT colorimetric test based on the ability of viable cells to cause the transformation of tetrazolium salts MTT (3-[4,5-dimethylthiazol-2-yl]-2,5)diphenyltetrazolium bromide) into purple formazan, by cellular dehydrogenases. The cells were seeded into 96-well plates at a concentration of 2 × 10^5 cells/mL. Once 70–80% confluency was reached, tested compounds were added: ADS10310 and ADS1017 in concentrations ranging from 1 to 250 µM or DMSO as the vehicle in control cultures for the next 48 h (max. DMSO concentration <0.5%). Doxorubicin was used for comparison as the standard chemotherapeutic agent used in breast cancer treatment. After 48 h of incubation cell cultures were supplemented with 20 µL of 5 mg/mL MTT (Thermofisher, Waltham, MA, USA) stock in PBS (Corning, NY, USA), and the incubation was continued for 4 h at 37 °C. […] The solution absorbency was measured at 570 nm, using a PowerWave™ xs microplate spectrophotometer (BioTek Instruments, Winooski, VT, USA). […] IC50 values were determined using the AAT Bioquest IC50 calculator (AAT Bioquest, Inc. Quest Graph™ EC50 Calculator. https://www.aatbio.com/tools/ec50-calculator) (accessed on 6 September 2022).

COc1cccc2c1C(=O)c1c(O)c3c(c(O)c1C2=O)C[C@@](O)(C(=O)CO)C[C@@H]3O[C@H]1C[C@H](N)[C@H](O)[C@H](C)O1 [Doxorubicin, reference compound]
IC50 [1]: 2120 nM
IC50 [2]: 1850 nM
IC50 [3]: 4.87 µM
